# Measured values as given in patent US20150238519A1, “THERAPY FOR DRUG RESISTANT CANCER” (University of Central Florida Research Foundation, Inc., priority 2014, published 2015).
# What was measured:
# Frabin (FGD4) = experiment: Western blotting of Frabin in extracts of CDX treated LNCaP-104S cells; format: cell-based; conditions: western blot
# Excerpt: FIG. 2. Expression of FGD4 in untreated LNCap-104R1, LNCaP-104S and LNCaP-104S cells treated with CDX and androgen withdrawal. FIG. 2 A: Western blot of the whole cell extracts. FIG. 2 B: Densitometric analysis of the expression. Data represents the average of 3 separate analyses.
# Identification of targets regulated by our candidate miRNAs by MiRDB and TargetScan database search reveled a protein Frabin (FGD4), a GEF that is potentially regulated by mir-17, -21a and -106a and received higher target scores in both searches.
# [1] = system: mir-17, mir-18a, mir-18b, mir-20a and mir-106a; experiment: Genome-wide miRNA array profiling of LNCaP-104S cells upon CDX treatment; format: cell-based; conditions: CDX (5 μM) treatment and androgen blockade (CSFBS), vs untreated LNCaP-104S
# Excerpt: We used genome-wide miRNA array (1113 unique primers System Biosciences) profiling approach to dentify specific miRNAs that compensate for androgen ablation. Androgen-dependent (AD) subline of LNCaP cells LNCaP-104S (-104S) and its androgen independent (AI) derivative LNCaP-104R1 (-104R1) were used for monitoring differential expression of miRNAs upon treatment with casodex (CDX). LNCaP-104S cells are CDX-sensitive, whereas LNCaP-104R1 cells are not despite these cells express androgen receptor (AR) at a basal level higher than LNCaP-104S cells. LNCaP-104S cells require DHT for maintaining their AD status but when treated with CDX for 3 weeks in CSFBS (charcoal-stripped FBS), CDX insensitive colonies develop that are independent of androgen (CDXR). We profiled miRNA expression in −104S cells untreated and at 1 wk and 3 wks of treatment with CDX (5 μM) and CSFBS (Table 1). We also compared miRNA expression in untreated −104R1 cells. The ΔΔCT values were obtained for each sample (treatment condition) using LNCaP-104S untreated as the control.
# LNCaP-104S cells = conditions: androgen-dependent LNCaP-104S; cited from earlier work
# LNCaP-104R1 cells = conditions: androgen independent LNCaP-104R1; cited from earlier work
compound,measurement,setting,value
CC(O)(CS(=O)(=O)c1ccc(F)cc1)C(=O)Nc1ccc(C#N)c(C(F)(F)F)c1 (stereo not shown) [CDX],increase in expression of Frabin,Frabin (FGD4),> 2.0 fold
same,"down regulation of mir-17, mir-18a, mir-18b, mir-20a and mir-106a",[1],9-10 fold
same,CDX sensitivity,LNCaP-104S cells,CDX-sensitive
same,CDX sensitivity,LNCaP-104R1 cells,are not
